According to patent US20230157952A1, “METHOD FOR IMPROVING THE STABILITY OF A PHARMACEUTICAL COMPOSITION COMPRISING A HIGH PENETRATION DRUG, AND THE PHARMACEUTICAL COMPOSITION OBTAINED THEREFROM” (Techfields Inc., priority 2020, published 2023):

What was measured:
[1] = Effect of temperature (and pH) on the stability of the solution (purity); assay type: physicochemical; conditions: 7% solution in water
[2] = Effect of concentration on the stability of the solution (purity over time); conditions: in water at 25° C.

Which “Stability of the solution at a temperature higher than 40° C. and a pH lower than 3 or greater than 6” value [1] does the source give for `CCN(CC)CCOC(=O)Cc1ccc(C(=O)c2ccc(C)cc2)n1C.Cl` [2-(diethylamino)ethyl 1-methyl-5-(4-methylbenzoyl)-1H-pyrrole-2-acetate•HCl] here?
The value was “not stable”.

And the “Purity at Day 3” value ([2]; 0.01 wt %)?
The value was 82.3%.

And the “Purity at Day 7” value ([2]; 0.01 wt %)?
Its value is 72.2%.

What about the “Purity at Day 14” value ([2]; 0.01 wt %) of the same molecule?
The value was 57.4%.

And the “Purity at Day 21” value ([2]; 0.01 wt %)?
Its value is 45.4%.

What about the “Purity at Day 28” value ([2]; 0.01 wt %) of the same molecule?
Its value is 35.7%.

And the “Purity at hr 0” value ([2]; 0.01 wt %)?
Its value is 97.4%.

And the “Purity at Day 3” value ([2]; 0.1 wt %)?
Its value is 95.6%.

And the “Purity at Day 7” value ([2]; 0.1 wt %)?
Its value is 93.3%.

What about the “Purity at Day 14” value ([2]; 0.1 wt %) of the same molecule?
The value was 88.3%.

And the “Purity at Day 21” value ([2]; 0.1 wt %)?
Its value is 83.5%.

What about the “Purity at Day 28” value ([2]; 0.1 wt %) of the same molecule?
The value was 78.1%.

And the “Purity at hr 0” value ([2]; 0.1 wt %)?
The value was 97.5%.

And the “Purity at Day 3” value ([2]; 1 wt %)?
Its value is 95.7%.

What about the “Purity at Day 7” value ([2]; 1 wt %) of the same molecule?
Its value is 94.6%.

And the “Purity at Day 14” value ([2]; 1 wt %)?
The value was 92.3%.

And the “Purity at Day 21” value ([2]; 1 wt %)?
The value was 90.1%.

And the “Purity at Day 28” value ([2]; 1 wt %)?
The value was 88.6%.

And the “Purity at hr 0” value ([2]; 1 wt %)?
Its value is 97.7%.

And the “Purity at Day 3” value ([2]; 3 wt %)?
The value was 96.5%.

And the “Purity at Day 7” value ([2]; 3 wt %)?
The value was 96.2%.

And the “Purity at Day 14” value ([2]; 3 wt %)?
The value was 94.8%.

What about the “Purity at Day 21” value ([2]; 3 wt %) of the same molecule?
Its value is 94.0%.

And the “Purity at Day 28” value ([2]; 3 wt %)?
Its value is 92.7%.

What about the “Purity at hr 0” value ([2]; 3 wt %) of the same molecule?
The value was 97.9%.

And the “Purity at Day 3” value ([2]; 5 wt %)?
Its value is 97.2%.

What about the “Purity at Day 7” value ([2]; 5 wt %) of the same molecule?
The value was 97.0%.

What about the “Purity at Day 14” value ([2]; 5 wt %) of the same molecule?
Its value is 96.8%.

What about the “Purity at Day 21” value ([2]; 5 wt %) of the same molecule?
Its value is 95.6%.

And the “Purity at Day 28” value ([2]; 5 wt %)?
Its value is 94.4%.

And the “Purity at hr 0” value ([2]; 5 wt %)?
The value was 97.9%.

And the “Purity at Day 3” value ([2]; 7 wt %)?
Its value is 97.5%.

What about the “Purity at Day 7” value ([2]; 7 wt %) of the same molecule?
Its value is 97.2%.

And the “Purity at Day 14” value ([2]; 7 wt %)?
Its value is 97.2%.

What about the “Purity at Day 21” value ([2]; 7 wt %) of the same molecule?
Its value is 96.7%.

What about the “Purity at Day 28” value ([2]; 7 wt %) of the same molecule?
Its value is 96.5%.

What about the “Purity at hr 0” value ([2]; 7 wt %) of the same molecule?
The value was 98.1%.

What about the “Purity at Day 3” value ([2]; 8 wt %) of the same molecule?
The value was 97.7%.

And the “Purity at Day 7” value ([2]; 8 wt %)?
The value was 97.3%.

And the “Purity at Day 14” value ([2]; 8 wt %)?
Its value is 96.9%.

What about the “Purity at Day 21” value ([2]; 8 wt %) of the same molecule?
The value was 96.9%.

And the “Purity at Day 28” value ([2]; 8 wt %)?
The value was 96.6%.

What about the “Purity at hr 0” value ([2]; 8 wt %) of the same molecule?
Its value is 98.1%.

What about the “Purity at Day 3” value ([2]; 10 wt %) of the same molecule?
The value was 97.9%.

And the “Purity at Day 7” value ([2]; 10 wt %)?
Its value is 97.5%.

And the “Purity at Day 14” value ([2]; 10 wt %)?
The value was 97.3%.

And the “Purity at Day 21” value ([2]; 10 wt %)?
Its value is 97.1%.

And the “Purity at Day 28” value ([2]; 10 wt %)?
Its value is 96.5%.

What about the “Purity at hr 0” value ([2]; 10 wt %) of the same molecule?
Its value is 98.2%.

What about the “Purity at Day 3” value ([2]; 15 wt %) of the same molecule?
Its value is 97.7%.

What about the “Purity at Day 7” value ([2]; 15 wt %) of the same molecule?
Its value is 97.6%.

What about the “Purity at Day 14” value ([2]; 15 wt %) of the same molecule?
Its value is 97.4%.

And the “Purity at Day 21” value ([2]; 15 wt %)?
The value was 97.1%.

And the “Purity at Day 28” value ([2]; 15 wt %)?
The value was 96.8%.

And the “Purity at hr 0” value ([2]; 15 wt %)?
Its value is 98.1%.

And the “Purity at Day 3” value ([2]; 20 wt %)?
The value was 97.6%.

What about the “Purity at Day 7” value ([2]; 20 wt %) of the same molecule?
The value was 97.5%.

What about the “Purity at Day 14” value ([2]; 20 wt %) of the same molecule?
Its value is 97.2%.

What about the “Purity at Day 21” value ([2]; 20 wt %) of the same molecule?
Its value is 97.1%.

What about the “Purity at Day 28” value ([2]; 20 wt %) of the same molecule?
The value was 96.8%.

And the “Purity at hr 0” value ([2]; 20 wt %)?
Its value is 98.0%.

What about the “Purity at Day 3” value ([2]; 30 wt %) of the same molecule?
The value was 97.7%.

And the “Purity at Day 7” value ([2]; 30 wt %)?
Its value is 97.5%.

And the “Purity at Day 14” value ([2]; 30 wt %)?
The value was 97.3%.

And the “Purity at Day 21” value ([2]; 30 wt %)?
Its value is 97.0%.

What about the “Purity at Day 28” value ([2]; 30 wt %) of the same molecule?
Its value is 96.7%.

What about the “Purity at hr 0” value ([2]; 30 wt %) of the same molecule?
Its value is 98.1%.

And the “Purity at Day 3” value ([2]; 50 wt %)?
The value was 97.8%.

What about the “Purity at Day 7” value ([2]; 50 wt %) of the same molecule?
Its value is 97.5%.

What about the “Purity at Day 14” value ([2]; 50 wt %) of the same molecule?
Its value is 97.2%.

What about the “Purity at Day 21” value ([2]; 50 wt %) of the same molecule?
Its value is 96.9%.

And the “Purity at Day 28” value ([2]; 50 wt %)?
The value was 96.8%.

And the “Purity at hr 0” value ([2]; 50 wt %)?
The value was 98.2%.

What about the “Stability when the concentration is 0.1% or lower” value [2] of the same molecule?
The value was “not stable”.

Which “Stability of the solution at a temperature higher than 40° C. and a pH lower than 3 or greater than 6” value [1] does the source give for `CCN(CC)CCOC(=O)Cc1ccccc1Oc1ccc(Cl)cc1Cl.Cl` [2-(diethylamino)ethyl 2-(2,4-dichlorophenoxy)benzeneacetate.HCl] here?
The value was “not stable”.

With `CCN(CC)CCOC(=O)COc1nn(Cc2ccccc2)c2ccccc12.Cl` [2-(diethylamino)ethyl [(1-benzyl-1H-indazol-3-yl)oxy]acetate•HCl] as the molecule, how does the “Stability of the solution at a temperature higher than 40° C. and a pH lower than 3 or greater than 6” value [1] read?
Its value is “not stable”.
